Data on three compounds can be found in US5389621A, “Method of enhancing the anticoagulant effects of aspirin using salicylamide” (University of Medicine and Dentistry of New Jersey, priority 1994, dated 1995).

Entries after “also recorded” stand apart in the source; their conditions may differ.

Data set [1] in a line: Tightly protein-bound 14C radioactivity after 14C-salicylamide. It counts as in vivo, male Sprague-Dawley rats. As to conditions: for Effect on tightly protein-bound 14C in lung: 14C-SAM with ASA; for Tightly protein-bound 14C in heart / Tightly protein-bound 14C in kidney / Tightly protein-bound 14C in liver / Tightly protein-bound 14C in lung / Tightly protein-bound 14C in plasma: 1.5 hr. As to the method: Forty-eight rats were divided into two groups.
The rats were anesthetized by light diethyl ether inhalation.
The plasma tightly protein-bound activity was measured by adding 100 μl of 10% trichloroacetic acid (TCA) to 100 μl of plasma in microcentrifuge tubes and vortexing the contents for 1 minute followed by centrifugation at 1800×g for 10 minutes. The supernatant was decanted and the tubes with the pellets in them were placed in scintillation vials each containing 15 ml of Aquasol-2 scintillation fluid. […] The radioactivity in the scintillation vials was counted in Beckman LS counter.
In the case of plasma analysis, 100 μl samples were used and the remainder of the procedure was the same as described above. The pellets were not dissolved but instead directly poured in a tube containing 15 ml of the scintillation fluid and the radioactivity was measured in the Beckman LS counter.

A further data set relates to platelet cyclooxygenase. Put plainly: Thromboxane B2 synthesis by arachidonic acid-stimulated platelet-rich plasma in vitro. It counts as cell-based, male Sprague-Dawley rats. As to conditions: for Effect on TX B2 formation / platelet cyclooxygenase: arachidonic acid-stimulated PRP. The source says: Was done manually by the method of Brecher and Conkite (1953) using phase contrast microscopy (Balplan) with a 40×annulus, 40×phase objective, and 10×ocular (total of 400×), and a special platelet counting chamber (American Optical Corp., Buffalo, N.Y.) and dilution with 1% ammonium oxalate. The platelet-rich plasma (PRP) was adjusted by dilution with platelet-poor plasma (PPP) to give a final count of 1×10^9 platelets/ml.
Arachidonic acid (as the sodium salt, >99.0% pure) was obtained from Sigma Chemical Co. and a stock solution of 34.5 mM was prepared by dissolving in isotonic saline. 20 μl of the stock solution were added to 440 μl of PRP (400 μl of PRP and 20 or 40 μl of treatment solution ±20 μl of saline) to make a 23 fold dilution. The final concentration of AA in PRP was 1.5 mM.
EDTA solution was prepared by adding 2 gm disodium EDTA and 0.8 gm NaCl and were adjusted to pH 7.4 with NaOH and made up to a final volume of 100 ml in distilled water. ASA solution was prepared by dissolving 30 mg in 10 ml of isotonic saline to make a solution of 3 mg/ml.
950 μl of EDTA solution were added to 50 μl of ASA solution and the mixture was vortexed. 40 μl of the mixture were pipetted in the experiment test tubes to stop further prostaglandin production.
Platelet-rich plasma (PRP) was prepared from male Sprague-Dawley rats (300-325 gm). The blood was collected by heart puncture and added to 3.8% citrate solution, final volume 9:1, blood:citrate. The blood was centrifuged at 120×g (750 rpm) for 15 minutes at 4° C. to obtain PRP. The rest of the blood was spun at 1800×g (3000 rpm) for 10 minutes to get the PPP which was used later for dilution of the PRP to achieve the final desired platelet concentration of 1×10^9 platelets/ml. 400 μl of PRP, containing 4×10^8 platelets, were pipetted in polypropylene tubes and the following treatment groups were studied:
1--Baseline (-ve control) tubes: to measure the baseline production of Thromboxane B2 (TX B2) by platelets during the time of the experiment, 60 μl of saline were added and left for 10 minutes in a shaking water bath at 37° C.
2--Control (+ve control) tubes: 20 μl of arachidonic acid (AA) solution were added to achieve a final concentration of 1.5 mM and the tubes were incubated […].
3--ASA and/or SAM treatment tubes: 20 μl of ASA (final conc. 130 μg/ml), 20 μl of SAM solution (final conc. 40 μg/ml), 20 μl of ASA/SAM(L) solution (final conc. 130/40 μg/ml) or 20 μl of ASA/SAM(H) solution (final conc. 130/120 μg/ml) were added to PRP together with 20 μl of saline for 10 minutes, then 20 μl of AA solution were added for additional 10 minutes.
4--ASA/SA treatment: 20 μl of ASA/SA solution (final conc. 130/130 μg/ml) and 20 μl of saline were added to the tubes for 10 minutes before AA was added for further 10 minutes.
5--ASA/SA/SAM treatment: 20 μl of ASA/SA solution (130/130 μg/ml as final conc.) and 20 μl of […] in low (L) or high (H) concentrations (40 or 120 μg/ml, final conc.) were added simultaneously to PRP followed 10 minutes later by AA.
6--SAM/SA treatment: 20 μl of SAM solution (final conc. 40 μg/ml) and 20 μl of SA solution (final conc. 130 μg/ml) were added followed 10 minutes later by AA for additional 10 minutes.
Also, the effect of SAM when administered first to the platelets followed 10 minutes later by ASA was studied to know whether the effect of SAM is time dependent or not.
During the treatment, all the tubes were incubated at 37° C. in a shaking water bath. Ten minutes after the addition of AA, or saline (for the control tubes), the experiment was ended by addition of 40 μl of EDTA/ASA solution. The tubes were immediately centrifuged at 1800×g for 15 minutes at 4° C. to precipitate the platelets and 100 μl of the supernatant were obtained for estimation of their content of TX B2 using a specific radioimmunoassay (Amersham International) (vide infra).
Radioimmunoassay Procedure for Measurement of Thromboxane B2 and 6-keto PG F1alpha […]

[2] abbreviates: oral 14C-SAM 3 mg/kg, alone or with ASA 10 mg/kg.
Where [3] appears, read: oral 14C-SAM 6 mg/kg, alone or with ASA 20 mg/kg.

On to `CC(=O)Oc1ccccc1C(=O)O` [ASA, acetylsalicylic acid], for which, in data set [1] (high dose), the “Effect on tightly protein-bound 14C in lung” value was “reached a significant level”. Also, the “Effect on tightly protein-bound 14C in lung” value in data set [1] (low dose) is listed as “tended to be higher”. Also, in data set [1] (low dose combination), the “Effect of ASA on tightly protein-bound 14C in heart” value is “significantly enhanced”. In the data set on platelet cyclooxygenase, the “Effect of ASA addition to SAM/SA on TX B2” value is “significant blocking of platelet cyclooxygenase” and the “Effect on TX B2 formation / platelet cyclooxygenase” value is listed as “significant inhibition of TX B2 formation”.

Regarding `NC(=O)c1ccccc1O` [SAM, Salicylamide], the figures for the “Reversal of SA effect by SAM” value in the data set with platelet cyclooxygenase (SAM 40 μg/ml with ASA/SA) and in the data set on platelet cyclooxygenase (SAM 120 μg/ml with ASA/SA) were ~ 60% and “completely preempted SA effect”, respectively. The “Effect of SAM on ASA inhibition of TX B2 synthesis” value with platelet cyclooxygenase (SAM 40 or 120 μg/ml coadministered with ASA) was “did not influence ASA inhibition of TX B2 synthesis; also recorded: did not alter ASA-induced inhibition of platelet cyclooxygenase”. Further, in the data set on platelet cyclooxygenase, the “Effect on TX B2 formation / platelet cyclooxygenase” value was “did not change TX B2 production compared to control”. Further, the “Effect on the aspirin-antagonistic effect of SA” value with platelet cyclooxygenase (platelet cyclooxygenase) was “dose-dependently quench the aspirin-antagonistic effect of SA”.

Consider `N[14C](=O)c1ccccc1O` [^14 C-SAM], for which, in data set [1] (setting [2]), the “Tightly protein-bound 14C in heart” value is listed as 20.6 ± 1.7 ng ^14 C/gm tissue, the “Tightly protein-bound 14C in kidney” value is reported as 669.0 ± 45.1 ng ^14 C/gm tissue, the “Tightly protein-bound 14C in liver” value came out at 24.2 ± 4.0 ng ^14 C/gm tissue and the “Tightly protein-bound 14C in lung” value is 43.1 ± 6.1 ng ^14 C/gm tissue. Besides, the “Tightly protein-bound 14C in plasma” value in data set [1] (setting [2]) came to 57.8 ± 3.0 ng ^14 C/ml plasma. Further, in data set [1] (setting [3]), the “Tightly protein-bound 14C in heart” value was found to be 87.7 ± 11.0 ng ^14 C/gm tissue, the “Tightly protein-bound 14C in kidney” value is 1104.5 ± 212.6 ng ^14 C/gm tissue, the “Tightly protein-bound 14C in liver” value was 72.6 ± 10.7 ng ^14 C/gm tissue and the “Tightly protein-bound 14C in lung” value was found to be 134.8 ± 20.7 ng ^14 C/gm tissue. Also, in data set [1] (setting [3]), the “Tightly protein-bound 14C in plasma” value was determined as 154.6 ± 29.8 ng ^14 C/ml plasma.
